Assay results from patent publication US20250206747A1, “COELENTERAZINE ANALOGUES” (priority 2023, published 2025).

Target: NANOLUC® luciferase (Oplophorus gracilirostris, UniProt Q9GV45, A31E/A60N/A81I/F95D/I117V/K70R/L54V/L99Q/M102K/N193R/P142E/Q151K/Q38R/Q45L/V71I/Y165I)
Test: Michaelis-Menten analysis of relative luminescence produced by NANOLUC luciferase at various concentrations of coelenterazine analogues
Type: biochemical
Conditions: 0.01 nM NANOLUC luciferase

NANOLUC® luciferase, sequence (Q9GV45 other isoform, or with tags, fused parts or gaps with the stated changes): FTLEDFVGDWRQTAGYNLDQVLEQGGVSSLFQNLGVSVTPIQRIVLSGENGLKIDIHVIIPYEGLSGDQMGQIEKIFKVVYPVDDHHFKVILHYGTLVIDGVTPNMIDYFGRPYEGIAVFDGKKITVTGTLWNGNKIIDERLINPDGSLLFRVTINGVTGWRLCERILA

COc1cccc(-c2cn3c(=O)c(Cc4ccco4)nc-3c(-c3cnnc(Cl)c3)[nH]2)c1 [Compound 10300]
Km (Table 1): 0.27 µM

O=c1c(Cc2ccco2)nc2c(-c3cnnc(Cl)c3)[nH]c(-c3cccc(F)c3F)cn1-2 [Compound 10427, 8-(6-chloropyridazin-4-yl)-6-(2,3-difluorophenyl)-2-(furan-2-ylmethyl)imidazo[1,2-a]pyrazin-3(7H)-one]
Km (Table 2): 0.16 µM

O=c1c(Cc2ccco2)nc2c(-c3cnnc(Cl)c3)[nH]c(-c3cccc(F)c3)cn1-2 [Compound 10299]
Km (Table 1): 0.15 µM
